Data reported in patent US9463190B2, “Methods of treating disease-induced ataxia and non-ataxic imbalance” (UNIVERSITY OF SOUTH FLORIDA, priority 2008, dated 2016).

Assays:
[1] = tested on: ataxia and imbalance; conditions: case series and small controlled trials; cited from earlier work
[2] = tested on: cerebellar symptoms of SCA14; experiment: Case report: person with SCA14 taking varenicline (Example 2, second patient); format: in vivo, human; conditions: for effect of prior medications on cerebellar symptoms: SCA14 patient, before varenicline; for total SARA score: blinded rating
Method: The second patient was a person who presented to an academic movement disorders center for neurologic evaluation. […] They had never smoked or used drugs or alcohol and had no allergies. Their medical history was significant for hypertension, which was treated with 325 mg of valsartan (Diovan). Prior medications to treat their cerebellar symptoms included levodopa/carbidopa (Sinemet), lorazepam (Ativan), clonazapem (Klonopin), and zolpidem (Ambien), to no avail.
On evaluation, the patient's vital signs and physical examination were normal. Their neurologic examination included a Mini-Mental Status Examination of 30/30, mild dysarthria, mild postural and intention tremor, and moderate dysmetria in all extremities. Their gait consisted of moderate to severe ataxia, and they required the constant use of a walker or the support of a cane to ambulate. The patient could tandem walk only with support. Increased tone and hyperreflexia were present in their lower extremities, with occasional myoclonus of their right leg.
The patient was started on 0.5 mg of varenicline (Chantix®) once a day, titrating to 1 mg twice daily after 1 week with the understanding that this was being used as an off-label medication. […] The patient returned to the academic movement disorders center 3 weeks after starting varenicline. […] The patient was scored by a blinded movement disorders expert using the SARA. The patient's total SARA score before taking 1 mg of varenicline twice daily was 22, whereas the score 3 weeks after starting varenicline was 8. The patient remained on varenicline for 8 weeks with continued efficacy but discontinued it owing to financial considerations.

[3] = target: α4β2 nicotinic acetylcholine receptors (Homo sapiens, UniProt P17787+P43681); conditions: cited from earlier work
[4] = tested on: cerebellar symptoms of spinocerebellar ataxia (SCA) and Fragile-X-Associated Tremor Ataxia Syndrome (FXTAS); experiment: Open-label varenicline in ataxic patients; SARA and CGI, blinded video assessment; format: in vivo, human
Method: DESIGN/METHODS: Seven patients from an academic movement disorders center with spinocerebellar ataxia (n=6) and […]=1), were treated with open-label varenicline 1 mg twice daily. Two patients had genetically confirmed SCA 3, 1 patient had genetically confirmed SCA 6, 3 patients had sporadic cerebellar ataxia with no family history, and 1 patient had genetically-confirmed FXTAS. Patients were treated for 4 weeks with varenicline, which was discontinued on day 30. They were assessed at baseline and after 4 weeks using the Scale for the Assessment and Rating of Ataxia (SARA) (Schmitz-Hubsch et al, 2006) and the Clinical Global Impression (CGI) scale. Ataxia experts blindly assessed videotapes of the patients. […] In the remaining 5 patients, there was a mean improvement of 2.4 points in gait scores and of 5 points for the total SARA scores with varenicline use.

[5] = in vivo; cited from earlier work
[6] = tested on: cerebellar symptoms of SCA type 3; experiment: Case report: person with SCA type 3 taking varenicline (Example 2, first patient); format: in vivo, human; conditions: for total SARA score: blinded video rating
From the text: The first patient was a person with a 16-year history of imbalance, gait dysfunction, and dysarthria who presented to an academic movement disorders center for management of their symptoms. […] Their medical history included one myocardial infarction 2 years ago, coronary artery disease, hypertension, and hyperlipidemia. […] On examination, the patient's vital signs and physical examination were normal. Their neurologic examination included a Mini-Mental Status Exam (MMSE) of 30/30, mild dysarthria, mild to moderate postural and intention tremor, mild dystonia in their arms, mild akinesia, and moderate dysmetria in all extremities. Fast alternating hand movements were irregular and marked by interruptions, and their heel to shin slide was severely abnormal bilaterally. Their gait was ataxic and […], and they required the constant use of a walker or the support of a cane to ambulate. Their cranial nerves and motor examination were normal, although there was mild decrease in […] sensory examination to light and deep touch in a stocking-glove distribution. There was increased tone and hyperreflexia in their lower extremities. […] After the evaluation, the patient started varenicline 0.5 mg twice daily for smoking cessation. The dose of varenicline was increased to 1 mg twice daily after one week. […] The patient returned to the academic movement disorders center one month after starting varenicline for routine follow-up. […] A videotape of the patient was scored by a blinded movement disorders expert using the SARA (Scale for Assessment and Rating of Ataxia) (1). The total SARA score prior to the patient taking varenicline 1 mg twice daily was 29, while the score one month after starting varenicline was 13.

[7] = target: α7 nicotinic acetylcholine receptors (Homo sapiens, UniProt P36544); conditions: cited from earlier work
[8] = tested on: ataxia and imbalance in Fragile X-associated Tremor Ataxia syndrome (FXTAS); experiment: Case report: person with FXTAS taking varenicline (Example 1); format: in vivo, human; conditions: for SARA score, functional staging for ataxia / SARA score, gait / SARA score, tandem walking: blinded video rating
Method: The patient was a person with a nine-year history of postural and intention tremor of their arms and a four-year history of gait ataxia. Their symptoms became disabling in the past year with frequent falls despite the intermittent use of a walker. […] A timeline of the patient's clinical course is depicted in FIG. 1. […] One week after taking varenicline, they noted that their walking improved and they no longer needed assistance from a walker to ambulate. […] The patient was evaluated by the University of South Florida (USF) movement disorders center seven weeks after starting varenicline. Vital signs and physical examination were normal. Their neurological examination included a Mini Mental State Exam (MMSE) of 26/30, mild dysarthria, mild voice tremor, severe postural and intention tremor of their arms, mild rigidity, and moderate dysmetria in all extremities. They were able to get out of a chair without assistance, and continued to walk six meters five times (30 meters total) without rest or the assistance of a walker. They were able to tandem walk for two to three steps. The rest of their neurological exam, including cranial nerves, reflexes, motor and sensory examination, was within normal limits. The patient received a score of 5 (out of a maximum possible score=63) on a Beck's Depression Scale (BDI) (2). […] Chest X-ray was clear, with no evidence of neoplasia. The patient stopped varenicline seven weeks after starting it. Within 10 days, they reported a slight worsening of the residual ataxia and imbalance. Within three weeks, they again needed a walker for ambulation and began to fall daily. The patient returned to clinic off varenicline. […] They once again needed assistance to walk and was unable to tandem walk even with assistance. The rest of the neurological examination remained unchanged, including the postural and intention tremor. […] At week 11, the patient re-started varenicline one mg twice daily, and again noted improvement in ataxia within one week. Due to vivid dreams, the varenicline dose was decreased to one mg daily at week 12. The patient has taken varenicline for 22 weeks, with a sustained ataxia improvement. A videotape of the patient was scored by a blinded movement disorders expert using the SARA (Scale for Assessment and Rating of Ataxia) (3). The SARA scores on varenicline one mg b.i.d. were “two” for functional staging for ataxia (ataxic symptoms were present and were recognized by patient, but were still mild), “one” for tandem walking (the patient was able to tandem walk in less than perfect manner or the patient could tandem walk greater than four sequential steps but less than eight steps) and “zero” for gait (normal). The SARA scores after the patient had discontinued varenicline for three weeks included a “three” for functional staging for ataxia (ataxic symptoms considered overt and significant), “three” for tandem walking (the patient was considered too poorly coordinated to attempt the task), and “two” for gait (the patient walked with definite ataxia; may have needed intermittent support for walking or the examiner needed to walk with patient for safety sake).

[9] = 3 weeks after starting varenicline
[10] = of 5 remaining patients, 1 mg twice daily, 4 weeks
[11] = one month after starting varenicline
[12] = twenty-one days after first taking varenicline
[13] = varenicline discontinued for three weeks
[14] = varenicline stopped after seven weeks

Sequence of α4β2 nicotinic acetylcholine receptors (P43681 29-627 limits assumed): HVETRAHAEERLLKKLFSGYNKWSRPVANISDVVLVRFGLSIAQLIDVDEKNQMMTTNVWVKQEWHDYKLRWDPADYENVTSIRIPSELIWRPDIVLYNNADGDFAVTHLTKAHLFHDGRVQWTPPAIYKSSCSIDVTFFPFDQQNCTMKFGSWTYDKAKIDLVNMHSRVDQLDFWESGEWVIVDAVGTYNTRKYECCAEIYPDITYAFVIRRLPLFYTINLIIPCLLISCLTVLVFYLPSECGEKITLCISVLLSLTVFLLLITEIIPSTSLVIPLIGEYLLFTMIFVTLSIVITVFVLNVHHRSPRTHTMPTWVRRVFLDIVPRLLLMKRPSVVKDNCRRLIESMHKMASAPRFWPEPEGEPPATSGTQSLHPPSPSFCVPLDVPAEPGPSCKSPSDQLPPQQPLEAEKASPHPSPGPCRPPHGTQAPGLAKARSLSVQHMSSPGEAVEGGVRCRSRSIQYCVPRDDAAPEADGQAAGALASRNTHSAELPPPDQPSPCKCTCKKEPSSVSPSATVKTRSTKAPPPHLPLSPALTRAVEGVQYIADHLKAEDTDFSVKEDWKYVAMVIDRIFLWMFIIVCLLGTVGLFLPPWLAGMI
Sequence of α4β2 nicotinic acetylcholine receptors (P17787 26-502): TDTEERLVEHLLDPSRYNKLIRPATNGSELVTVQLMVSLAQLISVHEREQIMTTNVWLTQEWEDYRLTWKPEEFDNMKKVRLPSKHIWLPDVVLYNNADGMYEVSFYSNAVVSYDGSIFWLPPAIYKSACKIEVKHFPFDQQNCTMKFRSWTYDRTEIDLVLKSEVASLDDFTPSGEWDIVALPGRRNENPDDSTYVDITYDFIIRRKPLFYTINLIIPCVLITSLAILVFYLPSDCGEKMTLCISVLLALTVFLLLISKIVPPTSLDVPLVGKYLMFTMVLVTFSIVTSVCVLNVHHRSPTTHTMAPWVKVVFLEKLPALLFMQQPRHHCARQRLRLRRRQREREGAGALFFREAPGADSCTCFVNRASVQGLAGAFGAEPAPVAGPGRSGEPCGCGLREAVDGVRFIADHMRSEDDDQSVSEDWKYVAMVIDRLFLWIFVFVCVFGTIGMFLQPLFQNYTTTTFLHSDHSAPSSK
Sequence of α7 nicotinic acetylcholine receptors (P36544 23-502): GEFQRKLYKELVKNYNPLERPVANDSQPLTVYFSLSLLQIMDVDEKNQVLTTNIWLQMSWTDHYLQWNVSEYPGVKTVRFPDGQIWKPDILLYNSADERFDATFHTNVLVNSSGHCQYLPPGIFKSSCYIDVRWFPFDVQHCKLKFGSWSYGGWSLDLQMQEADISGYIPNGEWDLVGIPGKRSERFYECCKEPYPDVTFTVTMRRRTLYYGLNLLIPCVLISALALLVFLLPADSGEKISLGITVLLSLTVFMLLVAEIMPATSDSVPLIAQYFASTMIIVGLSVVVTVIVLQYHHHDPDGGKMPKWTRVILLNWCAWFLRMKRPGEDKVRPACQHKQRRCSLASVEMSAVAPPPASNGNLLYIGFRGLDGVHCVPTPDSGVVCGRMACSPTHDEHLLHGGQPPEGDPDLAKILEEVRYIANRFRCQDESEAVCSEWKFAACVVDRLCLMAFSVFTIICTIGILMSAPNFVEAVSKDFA

O=C1CC2(CCCC2)CC(=O)N1CCCCN1CCN(c2ncccn2)CC1 [buspirone]
efficacy in ataxia and imbalance [1]: either conflicting results or limited efficacy

O=C1CN=C(c2ccccc2Cl)c2cc([N+](=O)[O-])ccc2N1 [clonazapem]
effect of prior medications on cerebellar symptoms [2]: to no avail

CNCCC(Oc1ccc(C(F)(F)F)cc1)c1ccccc1 (stereo not drawn) [fluoxetine]
efficacy in ataxia and imbalance [1]: either conflicting results or limited efficacy

Nc1nnc(-c2cccc(Cl)c2Cl)c(N)n1 [lamotrigine]
efficacy in ataxia and imbalance [1]: either conflicting results or limited efficacy

O=C1Nc2ccc(Cl)cc2C(c2ccccc2Cl)=NC1O (stereo not drawn) [lorazepam]
effect of prior medications on cerebellar symptoms [2]: to no avail

c1cnc2cc3c(cc2n1)[C@@H]1CNC[C@H]3C1 [varenicline, 7,8,9,10-tetrahydro-6,10-methano-6H-pyrazino (2,3-h)(3) benzazepine]
type of activity at α4β2 nicotinic acetylcholine receptors [3]: highly selective partial agonist
duration of nausea after taking the medication ([2]; 0.5 mg once a day, titrating to 1 mg twice daily after 1 week): 7 days
speech, dysmetria, finger-to-nose and heel-to-shin maneuvers [2, 9]: markedly improved
total SARA score [2, 9]: 8
gait dysfunction ([2]; 3 weeks after starting varenicline, could walk without assistance): improved markedly
neurologic examination after discontinuation ([2]; 4 weeks after discontinuing varenicline): returned to prevarenicline status
time to reported marked improvements in walking, coordination, speech and balance ([2]; after starting varenicline): 8 days
total SARA score ([2]; before taking 1 mg of varenicline twice daily): 22
duration on varenicline with continued efficacy ([2]; discontinued owing to financial considerations): 8 weeks
mean improvement in total SARA scores ([4]; 5 remaining patients, varenicline 1 mg twice daily, 4 weeks vs baseline): 5 points
mean improvement in gait scores ([4]; 5 remaining patients, varenicline 1 mg twice daily, 4 weeks vs baseline, SARA): 2.4 points
effect on cerebellar symptoms (conclusion) ([4]; blinded video analysis of ataxic patients): effectively treat cerebellar symptoms
patients with marked improvement in gait as measured by the CGI [4, 10]: Three
patients with moderate improvement in gait as measured by the CGI [4, 10]: 2 patients
reason for discontinuation of varenicline ([4]; two of seven patients (one SCA 6, one sporadic ataxia)): flu-like symptoms and increased tremor
reduction of intake of cigarettes ([4]; two smokers with marked improvement in gait, while taking varenicline): 50%
adverse effects [5]: nausea, sleep disturbance, constipation, flatulence, and vomiting
potential risks associated with use [5]: suicidal behavior, depressed mood, and agitation
time to reported improvement in depth perception and easier, more stable walking ([6]; 0.5 mg twice daily, 1 mg twice daily after one week): Ten
gait dysfunction and akinesia [6, 11]: improved markedly
limb dysmetria, fast alternating movements, finger to nose and heel-shin slide [6, 11]: markedly improved
total SARA score [6, 11]: 13
total SARA score ([6]; prior to taking varenicline 1 mg twice daily): 29
balance [6, 12]: markedly improved
distance walked using only a cane rather than a walker [6, 12]: 3 blocks
smoking cessation ([6]; while taking varenicline): did not stop smoking cigarettes
type of activity at α7 nicotinic acetylcholine receptors [7]: full agonist
ataxia and imbalance after starting varenicline ([8]; FXTAS patient): greatly improved
duration of sustained response after open-label resumption ([8]; FXTAS patient): five
BDI score off varenicline ([8]; after discontinuation): had not changed
neurological examination off varenicline ([8]; after discontinuation): returned to the pre-varenicline state
duration of varenicline use with sustained ataxia improvement ([8]; dose decreased to one mg daily at week 12): 22 weeks
SARA score, functional staging for ataxia ([8]; on varenicline one mg b.i.d.): two
SARA score, gait ([8]; on varenicline one mg b.i.d.): zero
SARA score, tandem walking ([8]; on varenicline one mg b.i.d.): one
onset of vivid dreaming after starting ([8]; one mg twice daily): two
side effect ([8]; one mg twice daily): vivid dreaming
smoking cessation ([8]; one mg twice daily): helped them quit smoking in a few days
time until walking improved and walker no longer needed ([8]; one mg twice daily): One
balance ([8]; one mg twice daily, one week): marked improvement
Beck's Depression Scale (BDI) score ([8]; seven weeks after starting varenicline, maximum possible score 63): 5
distance walked without rest or assistance of a walker ([8]; seven weeks after starting varenicline, six meters five times): 30 meters
SARA score, functional staging for ataxia [8, 13]: three
SARA score, gait [8, 13]: two
SARA score, tandem walking [8, 13]: three
time to slight worsening of residual ataxia and imbalance after stopping [8, 14]: ≤ 10 days
time until walker again needed and daily falls after stopping [8, 14]: three

Cc1ccc(-c2nc3ccc(C)cn3c2CC(=O)N(C)C)cc1 [zolpidem]
effect of prior medications on cerebellar symptoms [2]: to no avail
efficacy in ataxia and imbalance [1]: either conflicting results or limited efficacy
